Data reported in US7247306B2, “Bacteria strain and bacteriocin produced therefrom” (Universite Laval, priority 2004, dated 2007).
Marks after values point to notes of the source that are not given here.

How the values were obtained:
Format in all cases: cell-based
Listeria monocytogenes = assay: Agar diffusion method, spectrum of activity; set-up: key to Sensitivity to divergicin M35: +, inhibition;; −, no inhibition
Protocol: (§1) Bacteria stocks were maintained as 20% glycerol stock, at −80° C., for further use. Carnobacterium sp. and Lactococcus sp. strains were cultivated in MRS broth comprising 0.1% (vol/vol) Tween 80® in aerobic condition at 30° C., as currently known in the art. Listeria monocytogenes and Escherichia coli were grown in tryptic soy broth (TSB), supplemented with 0.6% (wt/vol) yeast extract in aerobic conditions, at 37° C., while Listeria innocua and L. ivanovii were re-cultivated in TSB with yeast extract and incubated aerobically at 30° C. Streptococcus thermophilus, Propionibacterium sp. and pediococci were activated in MRS broth at 37° C. under aerobic condition. All lactobacilli and bifidobacteria were grown in MRS broth supplemented with 0.05% (wt/vol) L-cysteine-hydrochloride and incubated anaerobically in Oxoid jars using an atmosphere generation system, at 37° C. In prior experiments, bacteria strains were sub-cultured at least three times (1%, vol/vol) in respective media at 24 h intervals.
(§2) The antibacterial activity of bacteriocin produced by C. divergens M35 was tested toward a variety of bacteria species, listed in Table 1, and belonging to genus Listeria, Lactobacillus, Streptococcus, Lactococcus, Propionibacterium and Escherichia, and was evaluated following the agar diffusion method, as is well known to those skilled in the art.

L. innocua HPB13 = assay: Bacteriocin activity during growth of C. divergens M35 in MRS broth, critical-dilution micromethod; conditions: 30° C.
Protocol: Protein concentration was determined as known in the art. Two-fold serial dilutions of 125 μl of tested sample were transferred into wells with a flat bottom microtest™ polystyrene microplate (96-well microtest, Becton Dickinson Labware, Franklin Lakes, N.J., USA), previously filled with 125 μl tryptic soy broth supplemented with 0.6% yeast extract (wt/vol). Each well was inoculated with 50 μl of 1000-fold diluted overnight culture of L. innocua HPB13 (final concentration of approximately 10^6 cfu/ml) and incubated at 30° C. for 18 h. Optical densities (650 nm) were then measured using a Thermo-max molecular device spectrophotometer (OPTI-Resources Inc., Quebec, PQ, Canada). The bacteriocin activity, expressed in arbitrary units per milliliter (AU/ml), was defined as the highest bacteriocin dilution showing complete inhibition of the indicator strain (optical density equals to that in un-inoculated media).
A C. divergens M35 culture were diluted (1% vol/vol) in peptone water (0.1%), plated on MRS agar supplemented with 0.1% vol/vol Tween 80® and incubated aerobically at 30° C. for 24 h. Bacterial viable counts, bacteriocin activity and pH were determined at 2 h intervals. Bacteriocin activity was determined according to the critical-dilution micromethod described hereinabove, using 5 ml of culture supernatant, separated by centrifugation and heated at 100° C.

Propionibacterium sp. = assay: Agar diffusion method, spectrum of activity; set-up: key: +, inhibition;; −, no inhibition; conditions: strain P5
Protocol: as §1, §2

Bifidobacterium breve = assay: Agar diffusion method, spectrum of activity; set-up: key: +, inhibition;; −, no inhibition; conditions: strain ATCC 15700
Protocol: as §1, §2

Lactobacillus salivarius = assay: Agar diffusion method, spectrum of activity; set-up: key: +, inhibition;; −, no inhibition; conditions: strain R 0078
Protocol: as §1, §2

Lactobacillus plantarum = assay: Agar diffusion method, spectrum of activity; set-up: key: +, inhibition;; −, no inhibition; conditions: strain R 1012
Protocol: as §1, §2

[1] = tested on: Streptococcus thermophilus; assay: Agar diffusion method, spectrum of activity; set-up: key: +, inhibition;; −, no inhibition; conditions: strain R 0083
Protocol: as §1, §2

L. ivanovii = assay: Agar diffusion method, spectrum of activity; set-up: key: +, inhibition;; −, no inhibition
Protocol: as §1, §2

Pediococcus pentosaceus = assay: Agar diffusion method, spectrum of activity; set-up: key: +, inhibition;; −, no inhibition; conditions: strain R 1044
Protocol: as §1, §2

[2] = tested on: Lactobacillus acidophilus; assay: Agar diffusion method, spectrum of activity; set-up: key: +, inhibition;; −, no inhibition; conditions: strain R 0052
Protocol: as §1, §2

Lactobacillus casei = assay: Agar diffusion method, spectrum of activity; set-up: key: +, inhibition;; −, no inhibition; conditions: strain R R0256
Protocol: as §1, §2

[3] = tested on: Propionibacterium freudenreichii; assay: Agar diffusion method, spectrum of activity; set-up: key: +, inhibition;; −, no inhibition; conditions: strain R 0501
Protocol: as §1, §2

Lactobacillus rhamnosus = assay: Agar diffusion method, spectrum of activity; set-up: key: +, inhibition;; −, no inhibition; conditions: strain R 0011
Protocol: as §1, §2

Pediococcus acidilactici = assay: Agar diffusion method, spectrum of activity; set-up: key: +, inhibition;; −, no inhibition
Protocol: as §1, §2

[4] = tested on: Lactobacillus delbrueckii subsp. lactis; assay: Agar diffusion method, spectrum of activity; set-up: key: +, inhibition;; −, no inhibition; conditions: strain R 0187
Protocol: as §1, §2

[5] = tested on: Lactococcus lactis (subsp. lactis biovar. diacetylactis); assay: Agar diffusion method, spectrum of activity; set-up: key: +, inhibition;; −, no inhibition
Protocol: as §1, §2

[6] = tested on: Lactococcus lactis (subsp. lactis); assay: Agar diffusion method, spectrum of activity; set-up: key: +, inhibition;; −, no inhibition; conditions: strain R0058
Protocol: as §1, §2

In the case of “divergicin M35: class IIa bacteriocin of 43 amino acids, 4518 Da, produced by Carnobacterium divergens strain M35 (SEQ ID NO: 1) (TKYYGNGVYCNSKKCWVDWGTAQGCIDVVIGQLGGGIPGKGKC; listed as Carnobacterium divergens)”, the “Diameter of inhibition zone (mm)” value (Listeria monocytogenes; strain LSD 348) was 17.5 ± 1 mm, the “Sensitivity to divergicin M35” value (Listeria monocytogenes; strain LSD 348) was “+” and the “Diameter of inhibition zone (mm)” value (Listeria monocytogenes; strain LSD 523) was 10 ± 1^b mm. For the same substance, the “Sensitivity to divergicin M35” value (Listeria monocytogenes; strain LSD 523) was “+”, the “Diameter of inhibition zone (mm)” value (Listeria monocytogenes; strain LSD 524) was 22.0 ± 1^b mm and the “Sensitivity to divergicin M35” value (Listeria monocytogenes; strain LSD 524) was “+”. For the same substance, the “Sensitivity to divergicin M35” value (Listeria monocytogenes; strain LSD 525) was “−”, the “sensitivity to divergicin M35 (in words)” value (Listeria monocytogenes; strain LSD 525) was “resistant” and the “Diameter of inhibition zone (mm)” value (Listeria monocytogenes; strain LSD 526) was 21.0 ± 1 mm. The “Sensitivity to divergicin M35” value (Listeria monocytogenes; strain LSD 526) was “+”, the “Diameter of inhibition zone (mm)” value (Listeria monocytogenes; strain LSD 529) was 14.5 ± 0.5 mm and the “Sensitivity to divergicin M35” value (Listeria monocytogenes; strain LSD 529) was “+”. For the same substance, the “Diameter of inhibition zone (mm)” value (Listeria monocytogenes; strain LSD 530) was 19.0 ± 1 mm, the “Sensitivity to divergicin M35” value (Listeria monocytogenes; strain LSD 530) was “+” and the “Diameter of inhibition zone (mm)” value (Listeria monocytogenes; strain LSD 531) was 18.5 ± 1 mm. For the same substance, the “Sensitivity to divergicin M35” value (Listeria monocytogenes; strain LSD 531) was “+”, the “Diameter of inhibition zone (mm)” value (Listeria monocytogenes; strain LSD 532) was 20.0 ± 0.5^b mm and the “Sensitivity to divergicin M35” value (Listeria monocytogenes; strain LSD 532) was “+”. For the same substance, the “Diameter of inhibition zone (mm)” value (Listeria monocytogenes; strain LSD 535) was 19.0 ± 0.5 mm, the “Sensitivity to divergicin M35” value (Listeria monocytogenes; strain LSD 535) was “+” and the “Diameter of inhibition zone (mm)” value (Listeria monocytogenes; strain LSD 538) was 20.0 ± 0.5 mm. The “Sensitivity to divergicin M35” value (Listeria monocytogenes; strain LSD 538) was “+”, the “biological activity of divergicin M35 in culture” value (L. innocua HPB13; after 10 h of growth) was “approximately 18000 AU/ml” and the “biological activity of divergicin M35 in culture, maximum” value (L. innocua HPB13; after 14 h of growth) was 65000 AU/ml. The “Sensitivity to divergicin M35” value (Propionibacterium sp.) was “−”, the “Sensitivity to divergicin M35” value (Bifidobacterium breve) was “−” and the “Sensitivity to divergicin M35” value (Lactobacillus salivarius) was “−”. The “Sensitivity to divergicin M35” value (Lactobacillus plantarum) was “−”, the “Sensitivity to divergicin M35” value [1] was “−” and the “Sensitivity to divergicin M35” value (L. ivanovii; strain ATCC19119) was “−”. The “Sensitivity to divergicin M35” value (L. ivanovii; strain HPB28) was “+”, the “Sensitivity to divergicin M35” value (Pediococcus pentosaceus) was “−” and the “Sensitivity to divergicin M35” value [2] was “−”. The “Sensitivity to divergicin M35” value (Lactobacillus casei) was “−”, the “Sensitivity to divergicin M35” value [3] was “−” and the “Sensitivity to divergicin M35” value (Lactobacillus rhamnosus) was “−”. The “Sensitivity to divergicin M35” value (Pediococcus acidilactici; strain R 1001) was “−”, the “Sensitivity to divergicin M35” value (Pediococcus acidilactici; strain UL 5) was “−” and the “Sensitivity to divergicin M35” value [4] was “−”. For the same substance, the “Sensitivity to divergicin M35” value ([5]; strain R 0100) was “−”, the “Sensitivity to divergicin M35” value ([5]; strain UL719) was “−” and the “Sensitivity to divergicin M35” value [6] was “−”.
